Reference: patent publication US6825178B1, “Methods and products for treating pseudomonas infection” (The Brigham and Women's Hospital, Inc., priority 1996, dated 2004)
Marks after values point to notes of the source that are not given here.

How the values were obtained:
Assay type in all cases: cell-based
[1] = tested on: transformed human airway epithelial cells (CFT1-LCFSN line); test: Inhibition of internalization of P. aeruginosa strain 149 into CFT1-LCFSN cells (bacterial ingestion assay); conditions: strain 149, CFT1-LCFSN cells
From the text: (§1) Cell lines. CFT1-LCFSN cells, carrying a retrovirally introduced chromosomal copy of the wild-type human CFTR gene were kindly provided by J. Olsen, J. Yankaskis and L. Johnson from The University of North Carolina, Chapel Hill, N.C.. The cell line parental to CFT1-LCFSN is designated CFT1; it is a line of human papilloma virus 18 E6/E7 transformed bronchial epithelial cells derived from a CF patient homozygous for ΔF508 CFTR. The CFT1-LCFSN cells have normal chloride ion conductance. CFT1-ΔF508 cells are derived from CFT1 cells and carry a cDNA introduced by a retrovirus vector that encodes the ΔF508 mutant form of CFTR. Cells were grown in supplemented F-12 medium as described in 5% CO2 at 37° C.
(§2) Bacterial strains. P. aeruginosa strains used include PAO1, a well-characterized laboratory strain, and strains 149 and 324, non-mucoid, LPS-smooth clinical isolates of P. aeruginosa from CF patients early in the course of infection. Fresh cultures of P. aeruginosa grown overnight at 37° C. on a tryptic soy agar plate were suspended in supplemented medium to prepare the bacterial inoculum. Approximately 10^6 cfu of the bacterial inoculum were added per well of 10^5, epithelial cells.
(§3) Reagents for inhibition of ingestion assays. Membranes were prepared from C127 cells as described by O'Riordan et al.. Membranes were suspended in 150 mM NaCl, 50 mM Tris, pH 7.5 and 1 mM EDTA and added at the indicated concentration to suspensions of P. aeruginosa strains prior to adding this mixture to CFT1-LCFSN cells to measure bacterial uptake. Membranes from CEM/VbI cells expressing P-glycoprotein and membranes from control CEM cells lacking P-glycoprotein were obtained from James Croop of Harvard Medical School. Purified (˜85%) recombinant CFTR was obtained from Genzyme Corp., and prepared as described. The protein was solubilized in 100 mM NaCl, 10 mM Tris, pH 8.0, 2 mM di-thio-threitol and 0.1% sodium dodecyl sulfate. Monoclonal antibodies raised to synthetic peptides corresponding to the first (MAb CF3) and fourth (MAb CF4) predicted extracellular domains of CFTR, as well as a MAb specific to a peptide representing the carboxy-terminal 14 amino acids of mature CFTR (MAb CF2) were provided by Dr. George Banting, University of Bristol, Bristol, UK [12]. Synthetic peptides were obtained from Chiron Mimetopes, San Diego, Calif. Peptide GRIIASYDPDNKEER (15 amino acids) (SEQ.ID.NO. 3) represents amino acids 103-117 of mature CFTR, peptide […] (31 amino acids) (SEQ.ID.NO. 4) represents amino acids 881-911 of mature CFTR. Peptides were made up as a stock solution in F-12 medium containing 1 μM/μl based on the purity reported by the manufacturer. Peptides were diluted in F-12 tissue culture medium prior to use in assays.
(§4) Bacterial ingestion assay. Cells were released from monolayers in tissue culture flasks by 5 min. of incubation with trypsin-versene mixture (BioWhitaker, Walkersville, Md.), washed, counted and seeded into 96-well tissue culture plates at 10^5 cells/well in supplemented F-12 medium and incubated at 37° C. in 5% CO2. Fresh cultures of P. aeruginosa grown overnight at 37° C. on a tryptic soy agar plate were suspended in supplemented F-12 medium to prepare the bacterial inoculum. Then 10^6 colony forming units (cfu) of the bacterial inoculum were added per well of 10^5 epithelial cells. Bacteria were allowed to invade the epithelial cells for 3 to 4 hours at 37° C., after which nonadherent bacteria were removed by washing. The remaining steps of the assay and the steps involved in the controls have previously been described. Three to 9 replicates were obtained per point, and analyzed using analysis of variance (ANOVA) and the Fisher PLSD statistic to determine pairwise differences. […]

[2] = tested on: transformed human airway epithelial cells (CFT1-LCFSN line); test: Inhibition of internalization of P. aeruginosa strain PAO1 into CFT1-LCFSN cells (bacterial ingestion assay); conditions: strain PAO1, CFT1-LCFSN cells
From the text: as §1, §2
as §3, with “GRIIASYDPDNKEER” left out
as §4

[3] = tested on: transformed human airway epithelial cells (CFT1-LCFSN line); test: Inhibition of internalization of P. aeruginosa strain 324 into CFT1-LCFSN cells (bacterial ingestion assay); conditions: strain 324, CFT1-LCFSN cells
From the text: as §1, §2, §3, §4

For “GRIIASYDPDNKEER (listed as Homo Sapiens) [First domain]”, the “Mean cfu of P. aeruginosa internalized (standard deviation)” value ([1]; 0.001 nanomoles peptide) was 5.73 × 10^4 (4.006 × 10^3) cfu, the “Mean cfu of P. aeruginosa internalized (standard deviation)” value ([1]; 0.01 nanomoles peptide) was 1.705 × 10^4 (2.1333 × 10^3)^a cfu and the “Mean cfu of P. aeruginosa internalized (standard deviation)” value ([1]; 0.1 nanomoles peptide) was 7.0167 × 10^3 (8.542 × 10^2)^a cfu. The “Mean cfu of P. aeruginosa internalized (standard deviation)” value ([1]; 1 nanomoles peptide) was 3.7833 × 10^3 (4.491 × 10^2)^a cfu, the “Mean cfu of P. aeruginosa internalized (standard deviation)” value ([2]; 0.001 nanomoles peptide) was 5.533 × 10^4 (5.2986 × 10^3) cfu and the “Mean cfu of P. aeruginosa internalized (standard deviation)” value ([2]; 0.01 nanomoles peptide) was 3.482 × 10^4 (3.8473 × 10^3)^a cfu. The “Mean cfu of P. aeruginosa internalized (standard deviation)” value ([2]; 0.1 nanomoles peptide) was 2.513 × 10^4 (1.6609 × 10^3)^a cfu, the “Mean cfu of P. aeruginosa internalized (standard deviation)” value ([2]; 1 nanomoles peptide) was 2.383 × 10^4 (4.6207 × 10^3)^a cfu and the “Mean cfu of P. aeruginosa internalized (standard deviation)” value ([3]; 0.001 nanomoles peptide) was 1.3938 × 10^5 (7.6735 × 10^3) cfu. For the same sequence, the “Mean cfu of P. aeruginosa internalized (standard deviation)” value ([3]; 0.01 nanomoles peptide) was 1.405 × 10^5 (9.4323 × 10^3) cfu, the “Mean cfu of P. aeruginosa internalized (standard deviation)” value ([3]; 0.1 nanomoles peptide) was 7.232 × 10^4 (5.6982 × 10^3)^a cfu and the “Mean cfu of P. aeruginosa internalized (standard deviation)” value ([3]; 1 nanomoles peptide) was 1.462 × 10^4 (2.6955 × 10^3)^a cfu.
In the case of “LWLLGNTPLQDKGNSTHSRNNSYAVIITSTS (listed as Homo Sapiens) [Fourth domain, reference compound]”, the “Mean cfu of P. aeruginosa internalized (standard deviation)” value ([1]; 0.001 nanomoles peptide) is reported as 4.752 × 10^4 (5.9915 × 10^3) cfu, the “Mean cfu of P. aeruginosa internalized (standard deviation)” value ([1]; 0.01 nanomoles peptide) is reported as 4.86 × 10^4 (4.6463 × 10^3) cfu and the “Mean cfu of P. aeruginosa internalized (standard deviation)” value ([1]; 0.1 nanomoles peptide) is reported as 5.528 × 10^4 (6.0598 × 10^3) cfu. The “Mean cfu of P. aeruginosa internalized (standard deviation)” value ([1]; 1 nanomoles peptide) was 5.735 × 10^4 (4.0009 × 10^3) cfu, the “Mean cfu of P. aeruginosa internalized (standard deviation)” value ([2]; 0.001 nanomoles peptide) was 6.978 × 10^4 (5.4745 × 10^3) cfu and the “Mean cfu of P. aeruginosa internalized (standard deviation)” value ([2]; 0.01 nanomoles peptide) was 7.23 × 10^4 (3.6721 × 10^3) cfu. For the same sequence, the “Mean cfu of P. aeruginosa internalized (standard deviation)” value ([2]; 0.1 nanomoles peptide) was 7.488 × 10^4 (5.0653 × 10^3) cfu, the “Mean cfu of P. aeruginosa internalized (standard deviation)” value ([2]; 1 nanomoles peptide) was 8.708 × 10^4 (4.0519 × 10^3) cfu and the “Mean cfu of P. aeruginosa internalized (standard deviation)” value ([3]; 0.001 nanomoles peptide) was 1.3275 × 10^5 (9.408 × 10^3) cfu. For the same sequence, the “Mean cfu of P. aeruginosa internalized (standard deviation)” value ([3]; 0.01 nanomoles peptide) was 1.412 × 10^5 (7.1986 × 10^3) cfu, the “Mean cfu of P. aeruginosa internalized (standard deviation)” value ([3]; 0.1 nanomoles peptide) was 1.416 × 10^5 (1.195 × 10^4) cfu and the “Mean cfu of P. aeruginosa internalized (standard deviation)” value ([3]; 1 nanomoles peptide) was 1.42 × 10^5 (1.746 × 10^4) cfu.
